Reference: ChEMBL document CHEMBL6127121, “Development of N-(4-(1H-Imidazol-1-yl)phenyl)-4-chlorobenzenesulfonamide, a Novel Potent Inhibitor of β-Catenin with Enhanced Antitumor Activity and Metabolic Stability” (J Med Chem, 2024)
Activity calls are given as the source filed them. The rule behind the calls is not given here.

Experiments:
SW480 [1] = assay: Inhibition of cell growth in human SW480 cells incubated for 48 to 72 hrs by XTT method; format: functional, cell-based
HCT-116 [2] = assay: Inhibition of Wnt/beta-catenin signaling in human HCT-116 cells assessed as residual activity at IC50 concentration incubated for 12 hrs by Topflash/Fopflash Dual-Glo luciferase reporter assay; format: cell-based; settings: dose 30.0 µM
SW480 [3] = assay: Inhibition of Wnt/beta-catenin signaling in human SW480 cells assessed as residual activity at IC50 concentration incubated for 12 hrs by Topflash/Fopflash Dual-Glo luciferase reporter assay; format: cell-based; settings: dose 30.0 µM
HCT-116 [4] = assay: Inhibition of cell growth in human HCT-116 cells incubated for 48 to 72 hrs by XTT method; format: functional, cell-based
MDA-MB-231 [5] = assay: Antiproliferative activity against human MDA-MB-231 cells at 40 uM incubated for 24 hrs by IncuCyte live-cell imaging analysis; format: functional, cell-based
MDA-MB-231 [6] = assay: Antiproliferative activity against human MDA-MB-231 cells at 1.48 to 40 uM incubated for 72 hrs by IncuCyte live-cell imaging analysis; format: functional, cell-based; settings: dose 1.48-40 µM
[7] = Metabolic stability in human liver microsomes assessed as half life preincubated for 10 mins followed by NADP, glucose-6-phosphate and glucose-6-phosphate dehydrogenase addition and measured upto 60 mins by LC-MS/MS analysis; format: ADME, Microsome; settings: time < 70 min
HCT-116 [8] = assay: Downregulation of Sall4 mRNA level in human HCT-116 cells at 10 uM incubated for 24 hrs by qPCR analysis; format: functional, cell-based
HCT-116 [9] = assay: Antitumor activity against human HCT-116 cells xenografted in BALB/c nu/nu mouse assessed as reduction in tumor volume at 25 mg/kg, ip administered every 2 days for 30 day; format: functional, organism-based
[10] = Downregulation of c-Myc mRNA level in human HCT-116 cells at 10 uM incubated for 24 hrs in presence of 50 mM LiCl by qPCR analysis; format: functional
HCT-116 [11] = assay: Antitumor activity against human HCT-116 cells xenografted in BALB/c nu/nu mouse assessed as reduction in tumor weight at 25 mg/kg, ip administered every 2 days for 30 day; format: functional, organism-based
HCT-116 [12] = assay: Downregulation of Fgf20 mRNA level in human HCT-116 cells at 10 uM incubated for 24 hrs by qPCR analysis; format: functional, cell-based
HCT-116 [13] = assay: Downregulation of c-Myc protein level in human HCT-116 cells incubated for 24 hrs in presence of 50 mM LiCl by Western blotting analysis; format: functional, cell-based; settings: dose 10-100 µM
[14] = Metabolic stability in human liver microsomes assessed as intrinsic clearance per mg protein preincubated for 10 mins followed by NADP, glucose-6-phosphate and glucose-6-phosphate dehydrogenase addition and measured upto 60 mins by LC-MS/MS analysis; format: ADME, Microsome; settings: time < 70 min, read-out: CLH
[15] = target: T1, Catenin beta-1 (Homo sapiens) (UniProt P35222); assay: Inhibition of beta-catenin in human HCT-116 cells transfected with luciferase based vectors incubated for 24 hrs in presence of LiCl; format: cell-based; settings: dose 50-100 nM
T1 sequence (whole entry): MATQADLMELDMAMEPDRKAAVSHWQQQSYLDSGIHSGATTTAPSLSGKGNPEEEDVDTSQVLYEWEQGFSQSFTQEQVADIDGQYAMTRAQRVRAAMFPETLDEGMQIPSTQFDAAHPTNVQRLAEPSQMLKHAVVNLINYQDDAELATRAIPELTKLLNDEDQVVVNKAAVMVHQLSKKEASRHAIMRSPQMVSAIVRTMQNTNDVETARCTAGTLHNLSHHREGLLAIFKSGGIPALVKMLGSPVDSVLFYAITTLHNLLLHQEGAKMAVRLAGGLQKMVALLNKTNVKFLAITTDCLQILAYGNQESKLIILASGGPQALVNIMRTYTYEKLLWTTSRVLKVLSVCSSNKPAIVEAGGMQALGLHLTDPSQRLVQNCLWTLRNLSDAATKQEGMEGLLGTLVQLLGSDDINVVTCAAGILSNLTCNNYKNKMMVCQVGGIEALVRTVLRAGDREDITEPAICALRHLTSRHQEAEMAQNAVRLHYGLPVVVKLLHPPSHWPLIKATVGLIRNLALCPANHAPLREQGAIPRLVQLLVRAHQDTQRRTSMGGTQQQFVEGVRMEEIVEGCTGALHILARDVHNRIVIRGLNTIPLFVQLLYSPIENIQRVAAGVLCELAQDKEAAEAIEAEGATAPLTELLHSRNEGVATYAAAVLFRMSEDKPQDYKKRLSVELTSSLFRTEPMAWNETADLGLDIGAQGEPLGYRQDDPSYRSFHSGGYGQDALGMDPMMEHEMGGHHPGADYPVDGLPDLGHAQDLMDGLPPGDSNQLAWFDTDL

[16] = target: T1, Catenin beta-1 (Homo sapiens); assay: Inhibition of beta-catenin in human HCT-116 cells transfected with luciferase based vectors at 1 to 10 nM incubated for 48 hrs in presence of LiCl; format: cell-based; settings: dose 1-10 nM
HCT-116 [17] = assay: Downregulation of beta-catenin protein level in human HCT-116 cells incubated for 24 hrs in presence of 50 mM LiCl by Western blotting analysis; format: functional, cell-based; settings: dose 10-100 µM
HCT-116 [18] = assay: Antitumor activity against human HCT-116 cells xenografted in BALB/c nu/nu mouse assessed as reduction in nuclear Ki67 expression at 25 mg/kg, ip administered every 2 days for 30 day by […] based assay; format: functional, organism-based
[19] = Metabolic stability in mouse liver microsomes assessed as half life preincubated for 10 mins followed by NADP, glucose-6-phosphate and glucose-6-phosphate dehydrogenase addition and measured upto 60 mins by LC-MS/MS analysis; format: ADME, Microsome; settings: time < 70 min
HCT-116 [20] = assay: Downregulation of c-Myc mRNA level in human HCT-116 cells incubated for 24 hrs in presence of 50 mM LiCl by qPCR analysis; format: functional, cell-based; settings: dose 10-100 µM
[21] = Metabolic stability in mouse liver microsomes assessed as intrinsic clearance per mg protein preincubated for 10 mins followed by NADP, glucose-6-phosphate and glucose-6-phosphate dehydrogenase addition and measured upto 60 mins by LC-MS/MS analysis; format: ADME, Microsome; settings: time < 70 min, read-out: CLH
MDA-MB-231 [22] = assay: Antiproliferative activity against human MDA-MB-231 cells at 13.33 uM incubated for 72 hrs by IncuCyte live-cell imaging analysis; format: functional, cell-based

SMILES | EC50 (SW480 [1]) [µM] | Activity (HCT-116 [2]) [%] | Activity (SW480 [3]) [%] | EC50 (HCT-116 [4]) [µM] | other results
O=S(=O)(Nc1cccc(-c2ccccn2)c1)c1ccc(I)cc1 | 25 | 8.5 | 2.6 | 39 | 
O=S(=O)(Nc1cccc(-c2ccsc2)c1)c1ccc(Br)cc1 | 25 | 0.8 | 2.7 | 19 | Activity (MDA-MB-231 [5]): Active; Activity (MDA-MB-231 [6]): Active
O=S(=O)(Nc1ccc(-c2ccoc2)cc1)c1ccc(Br)cc1 | 35 | 32.1 | 28.4 | 62 | 
O=C1[C@H](Cc2ccc(O)cc2)N2C(=O)CCN(C(=O)NCc3ccccc3)[C@H]2CN1Cc1cccc2ccccc12 |  |  |  |  | Activity (MDA-MB-231 [5]): Active
O=S(=O)(Nc1ccc(-c2ccccn2)cc1)c1ccc(Br)cc1 | 34 | 4.3 | 8.8 | 24 | 
COC(=O)c1ccc(NS(=O)(=O)c2ccc(Br)cc2)cc1 |  | 2.5 | 19.4 |  | 
O=S(=O)(Nc1ccc(-n2ccnc2)cc1)c1ccc(Cl)cc1 | 2 | 2.5 | 3.7 | 0.12 | half-life [7]: > 500 min; Activity (HCT-116 [8]): Active; Activity (HCT-116 [9]): Active; Activity [10]: 50%; Activity (HCT-116 [11]): Active; Activity (HCT-116 [12]): Active; Activity (HCT-116 [13]): Dose-Dependent Effect; microsomal CLint [14]: < 3 µL/min/mg; inhibition [15]: Dose-Dependent Effect; inhibition [16]: Active; Activity (HCT-116 [17]): Dose-Dependent Effect; Activity (HCT-116 [18]): Active; half-life [19]: > 500 min; Activity (HCT-116 [20]): Dose-Dependent Effect; microsomal CLint [21]: < 3 µL/min/mg
O=S(=O)(Nc1cccc(-c2ccccc2)c1)c1ccc(C(F)(F)F)cc1 | 43 | 36.4 | 28.3 | 48 | 
CCOc1ccc2ccc(=O)oc2c1 |  |  |  |  | half-life [7]: 14.8 min; microsomal CLint [14]: 94 µL/min/mg; half-life [19]: 1.9 min; microsomal CLint [21]: 712 µL/min/mg
O=S(=O)(Nc1cccc(-n2ccnc2)c1)c1ccc(Cl)cc1 | > 50 | 8.4 | 2.3 | > 50 | 
O=S(=O)(Nc1ccc(-n2ccnc2)cc1)c1ccc(Br)cc1 | > 50 | 6.4 | 7.2 | > 50 | 
O=S(=O)(Nc1cccc(-n2ccnc2)c1)c1ccc(Br)cc1 | > 50 | 3.1 | 3.6 | > 50 | 
CC(C)NCC(O)COc1cccc2ccccc12 (centres undefined) [PROPRANOLOL] |  |  |  |  | half-life [7]: 35.2 min
O=S(=O)(Nc1cccc(-n2ccnc2)c1)c1ccc(C(F)(F)F)cc1 | 28 | 5.1 | 9.1 | 50 | 
O=S(=O)(Nc1cccc(-c2ccccc2)c1)c1ccc(Br)cc1 | 12 | 33.5 | 22.7 | 9 | Activity (MDA-MB-231 [6]): Active; Activity (MDA-MB-231 [22]): Active
CCOC(=O)c1ccc(NS(=O)(=O)c2ccc(Br)cc2)cc1 | > 50 | 18.8 | 21.6 | > 50 | 
O=S(=O)(Nc1ccc(-n2ccnc2)cc1)c1ccc(C(F)(F)F)cc1 | 14 | 4.4 | 6 | 16 | 
O=c1[nH]cc(F)c(=O)[nH]1 [FLUOROURACIL] | 13.7 |  |  | 23.1 | 
O=S(=O)(Nc1ccc(-c2ccoc2)cc1)c1ccc(C(F)(F)F)cc1 | > 50 | 9.7 | 4.4 | > 55 | 
O=S(=O)(Nc1cccc(-c2ccoc2)c1)c1ccc(Br)cc1 | 38 | 5.7 | 1.6 | 35 | 
O=S(=O)(Nc1ccc(-c2cccs2)cc1)c1ccc(C(F)(F)F)cc1 | 45 | 33.1 | 26.6 | 39 | 
O=S(=O)(Nc1ccc(-c2ccsc2)cc1)c1ccc(C(F)(F)F)cc1 | 17 | 2.4 | 5.6 | 12 | 
O=S(=O)(Nc1ccc(-c2ccccc2)cc1)c1ccc(C(F)(F)F)cc1 | 8.7 | 22.4 | 37.3 | 12 | 
O=S(=O)(Nc1ccc(-c2ccsc2)cc1)c1ccc(Br)cc1 | 27 | 8.6 | 3.7 | 32 | 
O=S(=O)(Nc1ccc(-c2ccccc2)cc1)c1ccc(Br)cc1 | 31 | 3.2 | 8.1 | 27 | 
O=S(=O)(Nc1cccc(-c2ccccn2)c1)c1ccc(-n2cccc2)cc1 | 46 | 6.4 | 6.3 | 66 | 
O=S(=O)(Nc1cccc(-c2ccco2)c1)c1ccc(C(F)(F)F)cc1 | > 50 | 2.7 | 5.3 | > 50 | 
O=S(=O)(Nc1ccc(-c2ccco2)cc1)c1ccc(C(F)(F)F)cc1 | > 50 | 2.4 | 6.6 | > 50 | 
O=S(=O)(Nc1cccc(-c2ccoc2)c1)c1ccc(C(F)(F)F)cc1 | > 50 | 6.7 | 7.4 | > 50 | 
O=S(=O)(Nc1cccc(-c2ccccn2)c1)c1ccc(C(F)(F)F)cc1 | > 50 | 6.6 | 3.4 | > 50 | 
